Data set [1] is described as follows: Solubility in water. The settings on record: in comparison to Org 41621. The class given is physicochemical. An excerpt:
As the diseases in which the compounds can be used are in the area of women's health care the vaginal route of administration is also contemplated. A medicine can be formulated in the form of a device for vaginal drug delivery such as in admixture with a flexible polymer for a removable intrauterine device or a removable vaginal device, for example in the form of a ring. Polymers or other additives can also be used for a parenteral implant, such as a subcutaneous implant for extended release of a drug according to the invention. As such, extended release formulations or other formulations aimed at particular absorption profiles are also within the scope of the invention. […] This offers an advantage for uses in the manufacture of medicines wherein higher solubility is desirable, such as a drinkable or injectable formulation.

The target of data set [2] is T1, PR-A (Homo sapiens, UniProt P06401).
T1 sequence (P06401 1-769 isoform P06401-2): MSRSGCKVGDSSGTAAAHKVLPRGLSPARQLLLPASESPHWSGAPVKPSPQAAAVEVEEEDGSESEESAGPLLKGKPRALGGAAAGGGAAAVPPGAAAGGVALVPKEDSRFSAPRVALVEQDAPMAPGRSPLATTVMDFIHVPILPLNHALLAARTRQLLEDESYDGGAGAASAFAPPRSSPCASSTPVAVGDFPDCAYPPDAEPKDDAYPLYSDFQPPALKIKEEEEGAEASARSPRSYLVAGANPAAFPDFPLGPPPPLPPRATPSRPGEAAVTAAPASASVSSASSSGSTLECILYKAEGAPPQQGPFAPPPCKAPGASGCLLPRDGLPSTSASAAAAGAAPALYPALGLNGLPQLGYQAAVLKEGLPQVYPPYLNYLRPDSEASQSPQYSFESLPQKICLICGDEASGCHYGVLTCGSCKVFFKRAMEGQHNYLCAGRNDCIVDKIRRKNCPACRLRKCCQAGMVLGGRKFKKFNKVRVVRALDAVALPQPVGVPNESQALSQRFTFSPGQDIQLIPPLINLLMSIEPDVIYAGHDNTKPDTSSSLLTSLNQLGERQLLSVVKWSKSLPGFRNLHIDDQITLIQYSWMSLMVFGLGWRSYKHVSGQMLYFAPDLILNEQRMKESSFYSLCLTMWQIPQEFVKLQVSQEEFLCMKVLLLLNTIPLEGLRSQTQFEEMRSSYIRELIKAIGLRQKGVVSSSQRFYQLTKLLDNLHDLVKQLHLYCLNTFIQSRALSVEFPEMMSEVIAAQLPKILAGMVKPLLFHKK
Briefly: In vitro nuclear receptor profile, PR-A antagonism. The class given is cell-based.

In data set [3] the test system is estrogen receptors in the CNS. The data set is described as follows: Lordosis model (facilitation of female sexual behaviour). In kind it is in vivo.
Data set [4] has as its target T1, PR-A. Briefly: In vitro nuclear receptor profile, PR-A agonism. The class given is cell-based.
Data set [5] deals with ovulation. The data set is described as follows: Ovulation inhibition in intact cycling female rats. In kind it is in vivo, rat.
Data set [6] deals with T2, androgen receptor (AR) (Homo sapiens, UniProt P10275).
T2 sequence (P10275 1-920): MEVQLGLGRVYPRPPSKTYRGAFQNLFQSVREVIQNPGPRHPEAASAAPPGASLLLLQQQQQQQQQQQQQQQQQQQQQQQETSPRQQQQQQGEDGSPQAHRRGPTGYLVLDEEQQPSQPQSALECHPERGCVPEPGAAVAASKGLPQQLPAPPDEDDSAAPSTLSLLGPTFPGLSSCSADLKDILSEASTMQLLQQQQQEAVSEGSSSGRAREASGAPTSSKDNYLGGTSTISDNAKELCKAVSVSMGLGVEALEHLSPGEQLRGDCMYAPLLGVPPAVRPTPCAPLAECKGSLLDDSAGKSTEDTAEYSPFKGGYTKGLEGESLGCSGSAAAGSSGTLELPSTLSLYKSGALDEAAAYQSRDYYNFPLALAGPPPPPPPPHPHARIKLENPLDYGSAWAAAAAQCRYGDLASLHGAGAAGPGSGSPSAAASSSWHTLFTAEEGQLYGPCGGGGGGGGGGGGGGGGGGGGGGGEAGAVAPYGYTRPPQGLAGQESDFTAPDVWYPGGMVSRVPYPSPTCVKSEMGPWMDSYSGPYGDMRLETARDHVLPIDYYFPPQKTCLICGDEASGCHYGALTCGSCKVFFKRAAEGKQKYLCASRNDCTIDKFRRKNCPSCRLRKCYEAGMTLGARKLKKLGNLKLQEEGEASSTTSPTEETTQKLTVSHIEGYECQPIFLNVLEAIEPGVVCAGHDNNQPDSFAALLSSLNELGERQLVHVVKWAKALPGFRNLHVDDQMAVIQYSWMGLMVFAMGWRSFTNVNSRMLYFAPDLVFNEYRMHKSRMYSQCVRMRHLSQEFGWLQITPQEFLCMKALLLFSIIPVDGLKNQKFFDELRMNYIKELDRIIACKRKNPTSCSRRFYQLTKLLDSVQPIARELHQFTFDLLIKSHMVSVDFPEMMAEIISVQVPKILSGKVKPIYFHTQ
Briefly: Androgen receptor antagonism in vitro. In kind it is cell-based. The settings on record: antagonist; read-out: IC50 as antagonist for the androgen receptor (AR).

Data set [7] has as its target ERβ (Homo sapiens, UniProt Q92731). Briefly: In vitro nuclear receptor profile, ERβ agonism. In kind it is cell-based. The settings on record: agonist mode; read-out: ERβ ago EC50.
The nature of data set [8]: 4-week phase I study, plasma exposure and endometrial biopsies. The settings on record: plasma; female human volunteers; formed by metabolism from oral 10 mg daily Org 41621, 4 weeks; read-out: blood plasma level Cmax. The class given is in vivo, human.
For data set [9], the system named is endometrium. The description is as above. The class given is in vivo, human. The settings on record: biopsies on day 29, female human volunteers.
For data set [10] the following is noted: rat, in vivo.
Data set [11] relates to vaginal tissue. The data set is described as follows: Allen-Doisy (rat). In kind it is in vivo.
The test system of data set [12] is LH/FSH, uterine tissue, vaginal tissue, cholesterol metabolism, bone. The data set is described as follows: 4-week multiple dose study in ovariectomized female rats. The class given is in vivo, rat.

1 compound from patent publication US8367648B2, “Substituted 16,17-annellated steroid compounds for use in womens healthcare” (MSD OSS B.V., priority 2009, dated 2013) can be followed below.

Chain of ERβ (Q92731 whole entry): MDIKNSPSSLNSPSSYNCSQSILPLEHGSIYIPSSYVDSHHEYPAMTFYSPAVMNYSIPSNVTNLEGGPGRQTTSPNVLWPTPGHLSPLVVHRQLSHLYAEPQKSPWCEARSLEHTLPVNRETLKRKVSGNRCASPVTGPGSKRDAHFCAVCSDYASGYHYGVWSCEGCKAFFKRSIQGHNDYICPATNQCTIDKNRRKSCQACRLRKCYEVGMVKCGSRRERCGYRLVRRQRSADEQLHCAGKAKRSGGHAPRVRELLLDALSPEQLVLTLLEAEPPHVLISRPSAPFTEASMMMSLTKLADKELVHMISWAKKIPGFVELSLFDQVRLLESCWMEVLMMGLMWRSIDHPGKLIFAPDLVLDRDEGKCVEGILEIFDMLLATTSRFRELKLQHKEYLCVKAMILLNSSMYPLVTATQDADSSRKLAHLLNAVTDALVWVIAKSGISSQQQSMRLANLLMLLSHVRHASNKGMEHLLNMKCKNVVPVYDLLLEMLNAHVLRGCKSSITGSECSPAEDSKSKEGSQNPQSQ

What is called IC50 is the concentration at which inhibition is half-maximal. A word on the EC50: it is the concentration giving half of the maximal effect. In general, Cmax refers to the peak of the concentration-time curve. In the case of `CCC[C@@H]1Cc2cc(O)ccc2[C@H]2CC[C@@]3(C)[C@@H](C[C@H]4CCC(=O)C[C@]43O)[C@H]12` [Compound 10, (7α,16β,17α)-3,17-dihydroxy-7-propyl-16,24-cyclo-19,21-dinorchola-1,3,5(10)-trien-22-one], the solubility in water entry in [1] was “very well soluble in water”. This compound also gave a PR-A ant anteff in data set [2] (antagonist efficacy) of 0.54. Moreover, in data set [2] (antagonist mode, read-out: PR-A ant IC50), the half-maximal inhibitory concentration (IC50) stood at 27 nM. For the same compound, in data set [3] (p.o.), the “Lordosis (rat) MAD p.o.” value came out at 0.14 mg/kg · day. Besides, in data set [3] (rat), the “response in the lordosis model” value is listed as “near full agonist response”. Further, the PR-A ago eff in data set [4] (agonist efficacy) was determined as 0.46. In addition, the concentration giving a half-maximal response (EC50) in data set [4] (agonist mode, read-out: PR-A ago EC50) came out at 30 nM. Moreover, in data set [4] (nanomolar activity), the “activity at PR-A in words” value is listed as “partial (ant)agonist”. Also, in data set [5] (intact regularly cycling female rats), the “minimal active dose (MAD) to inhibit ovulation” value worked out at 0.1 mg/kg per day. The “Ovulation Inhibition (rat) MAD p.o.” value in data set [5] (rat, p.o.) amounted to 0.10 mg/kg · day. Besides, the IC50 in data set [6] came out at 125 nM. The EC50 in data set [7] is over 10000 nM. The maximum concentration (Cmax) in [8] is 16 nM. In addition, in [9], the endometrial histopathology scores entry is “mostly atrophic or inactive endometrium” and the endometrial hyperplasia entry is recorded as “no signs of hyperplasia”. Further, the “dosages inducing early resorptions” value in data set [10] (female, po) was over 0.3 mg/kg. For the same compound, the post implantation loss entry in data set [10] (female, po, 0.3 mg/kg) was “approx. 80%”. Besides, in data set [10] (0.3 mg/kg), the fetal effects result is given as “No effects” and the teratogenicity result is reported as “no evidence of teratogenicity”. Besides, the “Allen-Doisy (rat) MAD p.o.” value in data set [11] came out at 0.15 mg/kg · day. In addition, the “behaviour on vaginal tissue, cholesterol metabolism and bone (bone mineral density, osteocalcin)” value in data set [12] is given as “behaves as an estrogen receptor agonist”. Moreover, the “circulating levels of LH and FSH” value in data set [12] (4 weeks, oral and subcutaneous in gelatine/mannitol) is recorded as “effectively suppress”. In addition, the “stimulation of rat uterine tissue (uterine weight)” value in data set [12] (daily oral dosing for 4 weeks, FIG. 1) is listed as “only mildly stimulates”.
